US8637562B2, “Methods for detecting sulfhydryl-containing compounds in a biological test sample” (Theravance, Inc., priority 2008, dated 2014)

Experiments:
Type in all cases: in vitro ADME
[1] = Hydrolysis of the methyl acrylate derivative in rat plasma (monomer detection method, LC-MS/MS); details: rat plasma containing 1% (v/v) methyl acrylate
Experimental: Rat blood (0.3 mL) was placed into EDTA microtainer tubes containing methyl acrylate (3 μL) (1:100 volume ratio of methyl acrylate:blood). Blood and methyl acrylate were mixed by gentle rolling and tapping of the tube. After 30 minutes of reaction at room temperature, the blood samples were placed on ice until centrifugation. The blood was processed to obtain plasma by centrifugation for 4 minutes at approximately 12,000 rpm. 0.15 mL of plasma was then transferred to cluster tubes on dry ice.
[drawing 26] into a specified volume of blank rat plasma containing 1% (v/v) of methyl acrylate. Compound III-a is the methyl acrylate derivative of compound I-a. In general, the calibration curve range was 0.1 to 1000 ng/mL of compound III-a in rat plasma. […]
Multiple reaction monitoring (MRM) is the standard technique for quantitative LC-MS/MS experiments. Four specific MRM transitions for compound I-a, compound III-a, compound IV-a, and the internal standard were simultaneously monitored by LC-MS/MS. […]
(§1) [drawing 27] is the hydrolyzed form of compound III-a. […] The relevant derivative concentrations of in vivo samples were determined from the calibration curve. The monomer concentration (in ng/mL units) was calculated from the concentration of the relevant derivative multiplied by the correction factor of the ratio of the molecular weight of the monomer/molecular weight of the derivative.

[2] = Hydrolysis of the methyl acrylate derivative in dog plasma (monomer detection method, LC-MS/MS)
Experimental: (§2) Subsequent studies were conducted using dog and monkey plasma. Accordingly, similar calibration standards were prepared in dog and monkey plasma.
(§3) Plasma samples were extracted by protein precipitation. In general, 200 μL of MeCN containing a specified concentration of the internal standard was added into a 50 μL aliquot of each plasma calibration standard, QC, and in vivo plasma sample. The plasma samples were then vortexed and centrifuged. 100 μL of extract was then taken from each plasma sample and reconstituted into 200 μL of 5% MeCN/water containing 0.2% formic acid.
(§4) Multiple reaction monitoring (MRM) is the standard technique for quantitative LC-MS/MS experiments. Four specific MRM transitions for compound I-a, compound III-a, compound IV-a, and the internal standard were simultaneously monitored by LC-MS/MS. 4′-(5-{[(S)-2-(2-Carboxyethylsulfanyl)-4-methylpentanoyl amino]methyl}-2-ethoxy-4-ethylimidazol-1-ylmethyl)-3′-fluorobiphenyl-2-carboxylic acid (compound IV-a):
as §1

[3] = Hydrolysis of the methyl acrylate derivative in monkey plasma (monomer detection method, LC-MS/MS)
Experimental: as §2, §3, §4, §1

hydrolysis of compound III-a to compound IV-a in plasma [1]: completely hydrolyzes to compound IV-a
hydrolysis of compound III-a to compound IV-a in plasma [2]: not
hydrolysis of compound III-a to compound IV-a in plasma [3]: not
Structure (SMILES): CCOc1nc(CC)c(CNC(=O)[C@H](CC(C)C)SCCC(=O)OC)n1Cc1ccc(-c2ccccc2C(=O)O)cc1F [Compound III-a, 4′-(2-ethoxy-4-ethyl-5-{[(S)-2-(2-methoxycarbonylethylsulfanyl)-4-methylpentanoylamino]methyl}imidazol-1-ylmethyl)-3′-fluorobiphenyl-2-carboxylic acid]
